Patent US9187472B2 (AbbVie Inc., priority 2012, dated 2015)

Tested on: PC3 cells
Experiment: NAMPT Cell Proliferation Assay
Assay type: cell-based
Settings: Homo sapiens, PC-3, 120 h, 5 days incubation, cell viability by Cell Titer Glo
Procedure, shortened: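 PC3 cells were plated at 500 cells/well in RPMI with 10% heat-inactivated FBS, left to attach overnight, then given compounds in 10-fold dilutions from 10 μM to 1×10^−5 μM. After 5 days at 37° C and 5% CO2, viability was read by luminescence and IC50s came from sigmoidal fits of percent inhibition.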

Row | Structure (SMILES) | IC50 [nM]
1 | COc1csc(C(=O)N2CCC(c3ccc(NC(=O)NCc4ccn5ccnc5c4)cc3)CC2)c1 [Example 1130, 1-(imidazo[1,2-a]pyridin-7-ylmethyl)-3-(4-{1-[(4-methoxythiophen-2-yl)carbonyl]piperidin-4-yl}phenyl)urea] | 2.96
2 | N#Cc1ccc(C(=O)N2CCC(c3ccc(NC(=O)NCc4ccn5ccnc5c4)cc3)CC2)s1 [Example 1131, 1-(4-{1-[(5-cyanothiophen-2-yl)carbonyl]piperidin-4-yl}phenyl)-3-(imidazo[1,2-a]pyridin-7-ylmethyl)urea] | 34.4
3 | O=C(NCc1ccn2ccnc2c1)Nc1ccc(C2CCN(C(=O)c3ccc(C4CC4)cn3)CC2)cc1 [Example 1132, 1-(4-{1-[(5-cyclopropylpyridin-2-yl)carbonyl]piperidin-4-yl}phenyl)-3-(imidazo[1,2-a]pyridin-7-ylmethyl)urea] | 8.96
4 | N#Cc1cc(F)c(C(=O)N2CCC(c3ccc(NC(=O)NCc4ccn5ccnc5c4)cc3)CC2)c(F)c1 [Example 1133, 1-{4-[1-(4-cyano-2,6-difluorobenzoyl)piperidin-4-yl]phenyl}-3-(imidazo[1,2-a]pyridin-7-ylmethyl)urea] | 1
5 | CCn1cc(C(=O)N2CCC(c3ccc(NC(=O)NCc4ccn5ccnc5c4)cc3)CC2)c(C(C)C)n1 [Example 1134, 1-[4-(1-{[1-ethyl-3-(propan-2-yl)-1H-pyrazol-4-yl]carbonyl}piperidin-4-yl)phenyl]-3-(imidazo[1,2-a]pyridin-7-ylmethyl)urea] | 5.51
6 | O=C(NCc1ccn2ccnc2c1)Nc1ccc(C2CCN(C(=O)c3coc4ccccc34)CC2)cc1 [Example 1135, 1-{4-[1-(1-benzofuran-3-ylcarbonyl)piperidin-4-yl]phenyl}-3-(imidazo[1,2-a]pyridin-7-ylmethyl)urea] | 4.23
7 | COc1cc(C(=O)N2CCC(c3ccc(NC(=O)NCc4ccn5ccnc5c4)cc3)CC2)ncc1C [Example 1136, 1-(imidazo[1,2-a]pyridin-7-ylmethyl)-3-(4-{1-[(4-methoxy-5-methylpyridin-2-yl)carbonyl]piperidin-4-yl}phenyl)urea] | 3.02
8 | O=C(NCc1ccn2ccnc2c1)Nc1ccc(C2CCN(C(=O)c3ccnn3C3CCCC3)CC2)cc1 [Example 1137, 1-(4-{1-[(1-cyclopentyl-1H-pyrazol-5-yl)carbonyl]piperidin-4-yl}phenyl)-3-(imidazo[1,2-a]pyridin-7-ylmethyl)urea] | 0.277
9 | O=C(NCc1ccn2ccnc2c1)Nc1ccc(C2CCN(C(=O)c3scnc3Cl)CC2)cc1 [Example 1138, 1-(4-{1-[(4-chloro-1,3-thiazol-5-yl)carbonyl]piperidin-4-yl}phenyl)-3-(imidazo[1,2-a]pyridin-7-ylmethyl)urea] | 3.85
10 | N#Cc1ccsc1C(=O)N1CCC(c2ccc(NC(=O)NCc3ccn4ccnc4c3)cc2)CC1 [Example 1139, 1-(4-{1-[(3-cyanothiophen-2-yl)carbonyl]piperidin-4-yl}phenyl)-3-(imidazo[1,2-a]pyridin-7-ylmethyl)urea] | 1.41
11 | CC(C)c1ncncc1C(=O)N1CCC(c2ccc(NC(=O)NCc3ccn4ccnc4c3)cc2)CC1 [Example 1140, 1-(imidazo[1,2-a]pyridin-7-ylmethyl)-3-[4-(1-{[4-(propan-2-yl)pyrimidin-5-yl]carbonyl}piperidin-4-yl)phenyl]urea] | 5.84
12 | CCCc1c(C(=O)N2CCC(c3ccc(NC(=O)NCc4ccn5ccnc5c4)cc3)CC2)cnn1C [Example 1141, 1-(imidazo[1,2-a]pyridin-7-ylmethyl)-3-(4-{1-[(1-methyl-5-propyl-1H-pyrazol-4-yl)carbonyl]piperidin-4-yl}phenyl)urea] | 2.2
13 | CC(C(=O)N1CCC(c2ccc(NC(=O)NCc3ccn4ccnc4c3)cc2)CC1)n1ccc(C2CC2)n1 (stereo not drawn) [Example 1142, 1-(4-{1-[2-(3-cyclopropyl-1H-pyrazol-1-yl)propanoyl]piperidin-4-yl}phenyl)-3-(imidazo[1,2-a]pyridin-7-ylmethyl)urea] | 2.9
14 | O=C(NCc1ccn2ccnc2c1)Nc1ccc(C2CCN(C(=O)c3cc4ccccn4n3)CC2)cc1 [Example 1143, 1-(imidazo[1,2-a]pyridin-7-ylmethyl)-3-{4-[1-(pyrazolo[1,5-a]pyridin-2-ylcarbonyl)piperidin-4-yl]phenyl}urea] | 17.4
15 | O=C(NCc1ccn2ccnc2c1)Nc1ccc(C2CCN(C(=O)c3ccc4occc4c3)CC2)cc1 [Example 1144, 1-{4-[1-(1-benzofuran-5-ylcarbonyl)piperidin-4-yl]phenyl}-3-(imidazo[1,2-a]pyridin-7-ylmethyl)urea] | 9.6
16 | CC(C)c1nc(C(=O)N2CCC(c3ccc(NC(=O)NCc4ccn5ccnc5c4)cc3)CC2)co1 [Example 1145, 1-(imidazo[1,2-a]pyridin-7-ylmethyl)-3-[4-(1-{[2-(propan-2-yl)-1,3-oxazol-4-yl]carbonyl}piperidin-4-yl)phenyl]urea] | 7.04
17 | Cn1ncc2cccc(C(=O)N3CCC(c4ccc(NC(=O)NCc5ccn6ccnc6c5)cc4)CC3)c21 [Example 1146, 1-(imidazo[1,2-a]pyridin-7-ylmethyl)-3-(4-{1-[(1-methyl-1H-indazol-7-yl)carbonyl]piperidin-4-yl}phenyl)urea] | 1.88

Row | Structure (SMILES) | IC50 [nM]
18 | COc1ncc(C)cc1C(=O)N1CCC(c2ccc(NC(=O)NCc3ccn4ccnc4c3)cc2)CC1 [Example 1147, 1-(imidazo[1,2-a]pyridin-7-ylmethyl)-3-(4-{1-[(2-methoxy-5-methylpyridin-3-yl)carbonyl]piperidin-4-yl}phenyl)urea] | 2.83
19 | COc1ccc(C(=O)N2CCC(c3ccc(NC(=O)NCc4ccn5ccnc5c4)cc3)CC2)nc1OC [Example 1148, 1-(4-{1-[(5,6-dimethoxypyridin-2-yl)carbonyl]piperidin-4-yl}phenyl)-3-(imidazo[1,2-a]pyridin-7-ylmethyl)urea] | 2.72
20 | Cn1cc2c(C(=O)N3CCC(c4ccc(NC(=O)NCc5ccn6ccnc6c5)cc4)CC3)cccc2n1 [Example 1149, 1-(imidazo[1,2-a]pyridin-7-ylmethyl)-3-(4-{1-[(2-methyl-2H-indazol-4-yl)carbonyl]piperidin-4-yl}phenyl)urea] | 2.62
21 | CCC1CCCCN1C(=O)C(=O)N1CCC(c2ccc(NC(=O)NCc3ccn4ccnc4c3)cc2)CC1 (stereo not drawn) [Example 1150, 1-(4-{1-[(2-ethylpiperidin-1-yl)(oxo)acetyl]piperidin-4-yl}phenyl)-3-(imidazo[1,2-a]pyridin-7-ylmethyl)urea] | 64.1
22 | Cn1cc2ccc(C(=O)N3CCC(c4ccc(NC(=O)NCc5ccn6ccnc6c5)cc4)CC3)cc2n1 [Example 1151, 1-(imidazo[1,2-a]pyridin-7-ylmethyl)-3-(4-{1-[(2-methyl-2H-indazol-6-yl)carbonyl]piperidin-4-yl}phenyl)urea] | 7.78
23 | Cn1ncc2c(C(=O)N3CCC(c4ccc(NC(=O)NCc5ccn6ccnc6c5)cc4)CC3)cccc21 [Example 1152, 1-(imidazo[1,2-a]pyridin-7-ylmethyl)-3-(4-{1-[(1-methyl-1H-indazol-4-yl)carbonyl]piperidin-4-yl}phenyl)urea] | 3.08
24 | O=C(NCc1ccn2ccnc2c1)Nc1ccc(C2CCN(C(=O)c3ccoc3C(F)(F)F)CC2)cc1 [Example 1153, 1-(imidazo[1,2-a]pyridin-7-ylmethyl)-3-[4-(1-{[2-(trifluoromethyl)furan-3-yl]carbonyl}piperidin-4-yl)phenyl]urea] | 1.72
25 | O=C(NCc1ccn2ccnc2c1)c1ccc(C2=CCN(c3ccncn3)CC2)cc1 [Example 1154, N-(imidazo[1,2-a]pyridin-7-ylmethyl)-4-[1-(pyrimidin-4-yl)-1,2,3,6-tetrahydropyridin-4-yl]benzamide] | 170
26 | O=C(NCc1ccn2ccnc2c1)c1ccc(C2=CCN(c3cc(C(F)(F)F)ncn3)CC2)cc1 [Example 1156, N-(imidazo[1,2-a]pyridin-7-ylmethyl)-4-{1-[6-(trifluoromethyl)pyrimidin-4-yl]-1,2,3,6-tetrahydropyridin-4-yl}benzamide] | 35.4
27 | CNCCOC12CC3(C)CC(C)(CC(Cn4ncc(-c5ccc(C(=O)NCc6ccn7ccnc7c6)s5)c4C)(C3)C1)C2 [Example 1157, 5-[1-({3,5-dimethyl-7-[2-(methylamino)ethoxy]tricyclo[3.3.1.1^3,7]dec-1-yl}methyl)-5-methyl-1H-pyrazol-4-yl]-N-(imidazo[1,2-a]pyridin-7-ylmethyl)thiophene-2-carboxamide] | 53.1
28 | CC1(C(=O)N2CCC(c3ccc(C(=O)NCc4cn5ccnc5cn4)c(F)c3)CC2)CC1 [Example 1158, 2-fluoro-N-(imidazo[1,2-a]pyrazin-6-ylmethyl)-4-{1-[(1-methylcyclopropyl)carbonyl]piperidin-4-yl}benzamide] | 2.04
29 | O=C(NCc1cn2ccnc2cn1)c1ccc(C2CCN(C(=O)c3ccccc3)CC2)cc1F [Example 1159, 4-(1-benzoylpiperidin-4-yl)-2-fluoro-N-(imidazo[1,2-a]pyrazin-6-ylmethyl)benzamide] | 17.4
30 | CC(C)C(=O)N1CCC(c2ccc(C(=O)NCc3cn4ccnc4cn3)c(F)c2)CC1 [Example 1160, 2-fluoro-N-(imidazo[1,2-a]pyrazin-6-ylmethyl)-4-[1-(2-methylpropanoyl)piperidin-4-yl]benzamide] | 16.3
31 | O=C(NCc1cn2ccnc2cn1)c1ccc(C2CCN(C(=O)CC(F)(F)F)CC2)cc1F [Example 1161, 2-fluoro-N-(imidazo[1,2-a]pyrazin-6-ylmethyl)-4-[1-(3,3,3-trifluoropropanoyl)piperidin-4-yl]benzamide] | 61
32 | O=C(Cc1ccc2nncn2c1)Nc1ccc(C2CCN(C(=O)c3ccccc3F)CC2)cc1 [Example 1162, N-{4-[1-(2-fluorobenzoyl)piperidin-4-yl]phenyl}-2-([1,2,4]triazolo[4,3-a]pyridin-6-yl)acetamide] | 61.8
33 | CC1(Cn2cc(-c3ccc(C(=O)NCc4ccn5ccnc5c4)s3)cn2)CCN(CCN2CCNCC2)CC1 [Example 1163, N-(imidazo[1,2-a]pyridin-7-ylmethyl)-5-[1-({4-methyl-1-[2-(piperazin-1-yl)ethyl]piperidin-4-yl}methyl)-1H-pyrazol-4-yl]thiophene-2-carboxamide] | 2.7
